Experimental findings from US20170267727A1, “Conjugates of pH Low Insertion Peptide and Monomethyl Auristatins in the Treatment of Solid Tumors” (Lehigh University, priority 2016, published 2017) are described below.

Positions of bridges follow the written chain, without caps; N, C: chain ends. Non-standard residues stand in square brackets, D forms with d. Chains are numbered I, II in the order given. *: point of attachment. Dolaproine = CO[C@@H]([C@@H]1CCCN1)[C@@H](C)C(=O)O; Dil = CC[C@H](C)[C@H](NC)[C@@H](CC(=O)O)OC; X1 = C[C@@H](N*)[C@@H](O)c1ccccc1; NMeV = CN[C@H](C(=O)O)C(C)C; Mpa = O=C(O)CCS

For one series, the system named is HeLa cells. Description: Anti-proliferation Assay (2 hours treatment at pH 7.4 or 5.0, 72 hours growth, MTT). The procedure:
(§1) FIG. 3A, FIG. 3C and FIG. 3E show HeLa cells treated with pHLIP(WT)-MMAE, pHLIP(D25E)-MMAE, and MMAE(linker), respectively. FIG. 3B, FIG. 3D and FIG. 3F show MDA-MB-231 cells treated with pHLIP(WT)-MMAE, pHLIP(D25E)-MMAE, and MMAE(linker), respectively. Black columns represent cells treated at pH 7.4 and cells treated at low pH are shown in grey. For each condition, 3,000 cells/well (96-well plate) were seeded, allowed to adhere overnight, treated for 2 hours, washed once with media and grown for 72 hour in complete medium at physiologic pH. Cell viability was assessed with the MTT assay. All measurements were normalized to the media control (0 μM, pH 7.4), as 100% cell viability. Results are shown as mean±SD (n=6-9).
HeLa cells treated with pHLIP(WT)-MMAF (FIG. 9A), pHLIP(D25E)-MMAF (FIG. 9B), pHLIP(P20G)-MMAF (FIG. 9C), and pHLIP(R11Q)-MMAF (FIG. 9D). Circles represent cells treated at pH 7.4 and squares represent cells treated at pH 5.0. Results are shown as the mean±SEM (n=6-9).
(§2) Anti-proliferation Assay. HeLa and MDA-MB-231 cells were seeded in 96-well plates at a density of 3,000 cells/well and incubated overnight. Before treatment, construct aliquots were solubilized in an appropriate volume of DMEM without FBS (pH 7.4)—so that upon pH adjustment the desired treatment concentration is obtained—and gently sonicated for 30-60 seconds using a bath sonicator (Branson Ultrasonics). After removal of cell media, this treatment solution was added to each well and incubated at 37° C. for 5-10 minutes. The pH was then adjusted to the desired value using a pre-established volume of DMEM, pH 2.0 buffered with citric acid (final volume=50 μL) and the plate was incubated at 37° C. for 2 hours. After treatment, the media was removed, cells were washed once with 100 μL of complete DMEM, and 100 μL of complete medium was added to each well before returning the plate to the incubator. Treatment solutions were collected and their pH values measured using a micro-combination pH probe (Microelectrodes, Inc.). […] Cell viability was determined after 72 hours using the colorimetric MTT assay. Briefly, 10 μL of a 5 mg/mL MTT stock solution was added to the treated cells and incubated for 2 hours at 37° C. The resulting formazan crystals were solubilized in 200 μL DMSO and the absorbance measured at 580 nm using an Infinite 200 PRO microplate reader (Tecan). Cell viability was calculated against control cells treated with media at physiologic pH.
(§3) Inhibition of Cell Proliferation. The ability of pHLIP to move MMAE across the cell membrane and to inhibit cancer cell proliferation in concentration and pH-dependent manners was evaluated. Cell treatments for both pHLIP(WT)-MMAE and pHLIP(D25E)-MMAE constructs were carried out with conjugate concentrations ranging from 1.25 to 10 μM at either pH 7.4 or 5.0. After a 2-hour incubation at 37° C., the treatment media was replaced by fresh media, and cells were grown for an additional 72 hours at normal pH before assessing cell viability using the MTT assay. […] This treatment protocol is quite stringent when compared to the typical multi-days exposure treatments used with free drugs (FIG. 6A and FIG. 6B).

A further series has as its system MDA-MB-231 cells. The series is described as above. The note with it: for cell killing (printed 49% versus 100%): 1.25 μM treatment. The procedure:
as §1, §2, §3

Series [1] in a line: Construct Stability HPLC in Mouse Serum. It counts as in vitro ADME. To be noted: 37° C., 48 h. The procedure: FIG. 8A, FIG. 8B, and FIG. 8C show Purity check and Chemical stability of pHLIP-MMAE conjugates. (FIG. 8A) and (FIG. 8B): HPLC traces of pHLIP(WT)-MMAE and pHLIP(D25E)-MMAE, respectively: Purified conjugates (upper panels), 10 μM of conjugate in cell media (middle panels) and after incubation in cell media for 2 h at pH 5.0 and 37° C. (lower panels). The small peak observed around 27 min in (FIG. 8B) upper panel corresponds to some residual free pHLIP (<15%), which is known to not be cytotoxic (FIG. 7). (FIG. 8C) HPLC traces of Alexa750-pHLIP(WT)-MMAE: Purified conjugate (upper panel), 10 μM Alexa 750-pHLIP(WT)-MMAE before (upper panel) and after 48 h incubation in mouse serum at 37° C. (lower panel). Purity checks and chemical stability runs were performed on different column and with different flow rate, explaining the difference in retention times and peak broadness (see Experimental Section). […]
Peptide solutions were incubated at either pH 7.4 or pH 5.0 (37° C. and 5% CO2) and 100 μL aliquots were monitored via RP-HPLC at various time points (Agilent Eclipse XDB-C18 […] 9.4×250 mm; flow rate 2 mL/min; phase A: water 0.01% TFA; phase B: acetonitrile 0.01% TFA; gradient 45 min from 95/5 A/B to 0/100 A/B). […] The stability of Alexa750-pHLIP(WT)-MMAE was determined in mouse serum by solubilizing the construct to incubating it at 37° C. and monitoring via RP-HPLC at specific time points.

For “I: H-AAEQNPIYWARYADWLFTTPLLLLDLALLVDADEGTCG-OH / II: [Mpa][NMeV]V[Dil][Dolaproine]-X1 (disulfide I:37-II:1) [pHLIP(WT)-MMAE]”, the “effect on cell proliferation” value in the series with HeLa cells (pH 7.4, same conditions (1.25 to 10 μM)) is reported as “no or a moderate effect on cell proliferation”. Also, the cytotoxicity result in the series with HeLa cells (physiological pH, 5 μM) is reported as “only marginal cytotoxicity”. Also, the “cell killing (printed 49% versus 100%)” value with MDA-MB-231 cells worked out at 100%. Moreover, the inhibition of proliferation result with MDA-MB-231 cells (normal pH) is on record as “no significant inhibition of proliferation”. The stability in serum entry in series [1] is listed as “stable in serum”.

As to “I: H-AAEQNPIYWARYADWLFTTPLLLLELALLVDADEGTCG-NH2 / II: [Mpa][NMeV]V[Dil][Dolaproine]-X1 (disulfide I:37-II:1) [pHLIP(D25E)-MMAE]”, in the series with MDA-MB-231 cells, the “cell killing (printed 49% versus 100%)” value is on record as 49%.
